Source: patent US12345718B2, “Method for determining the haemoglobin content of an erythroid cell” (UNIVERSITÉ PARIS EST CRÉTEIL VAL DE MARNE, priority 2016, dated 2025)
“And” between values parts separate entries of the source, which are not always exact repeats. Equal entries are not always repeated.

Key:
[1] = system: HbF; experiment: HbF content of each red blood cell by flow cytometry (HbF distribution) during treatment with hydroxyurea
[2] = system: HbF; experiment: Mean HbF percentage (% HbF) by HPLC in SS patients before and during treatment with hydroxyurea
[3] = Complete blood count / biological data of SS patients during treatment with hydroxyurea; assay type: in vivo, human
[4] = 9 SS patients, D15-M3, mean (standard deviation)
[5] = 9 SS patients, ≥M6, mean (standard deviation)
[6] = SS patients, M6 of hydroxyurea, median

NC(=O)NO [hydroxyurea]
% RBCs with HbF [0; 2[ pg [1, 4]: 65.63 (25.13 % RBCs | % RBCs with HbF [2; 4[ pg [1, 4]: 11.32 (6.80 % RBCs | % RBCs with HbF [4; 6[ pg [1, 4]: 4.88 (2.90 % RBCs | % RBCs with HbF [6; 8[ pg [1, 4]: 3.42 (2.52 % RBCs | % RBCs with HbF [8; 10[ pg [1, 4]: 2.65 (2.18 % RBCs | % RBCs with HbF [10; 15[ pg [1, 4]: 2.41 (2.73 % RBCs | % RBCs with HbF [15; 20[ pg [1, 4]: 4.42 (4.27 % RBCs | % RBCs with HbF ≥20 pg [1, 4]: 5.27 (8.56 % RBCs | % RBCs with HbF [0; 2[ pg [1, 5]: 53.17 (30.63 % RBCs | % RBCs with HbF [2; 4[ pg [1, 5]: 15.05 (10.11 % RBCs | % RBCs with HbF [4; 6[ pg [1, 5]: 6.70 (4.39 % RBCs | % RBCs with HbF [6; 8[ pg [1, 5]: 3.92 (2.44 % RBCs | % RBCs with HbF [8; 10[ pg [1, 5]: 2.72 (1.83 % RBCs | % RBCs with HbF [10; 15[ pg [1, 5]: 2.55 (2.57 % RBCs | % RBCs with HbF [15; 20[ pg [1, 5]: 4.29 (3.42 % RBCs | % RBCs with HbF ≥20 pg [1, 5]: 11.60 (18.64 % RBCs | variation of red blood cells with medium-high HbF contents ([1]; D0 to M6): much lower variations | change in red blood cells having a very low HbF content ([1]; after 6 months of treatment): decreased greatly | increase of red blood cells with HbF content greater than 20 pg ([1]; after 6 months of treatment): up to 3 fold | patients in whom HbF follows a homogeneous distribution ([1]; after 6 months of treatment, heterogeneous before treatment in 8 patients, 9 analyzed): 6 patients | increase of red blood cells with HbF content greater than 20 g ([1]; after 6 months of treatment, variation not significant): up to 3 times | patients in whom HbF distribution becomes homogeneous ([1]; after ≥M4): 5 patients | variation in red blood cells having the lowest HbF contents (0 and 2 pg), given as increase ([1]; between D0 and M6, 9 patients): approximately 25% | % RBCs with HbF [0; 2[ pg ([1]; patient 2, D15-M1): 9.21 % RBCs | % RBCs with HbF [2; 4[ pg ([1]; patient 2, D15-M1): 14.72 % RBCs | % RBCs with HbF [4; 6[ pg ([1]; patient 2, D15-M1): 9.52 % RBCs | % RBCs with HbF [6; 8[ pg ([1]; patient 2, D15-M1): 8.47 % RBCs | % RBCs with HbF [8; 10[ pg ([1]; patient 2, D15-M1): 7.35 % RBCs | % RBCs with HbF [10; 15[ pg ([1]; patient 2, D15-M1): 9.03 % RBCs | % RBCs with HbF [15; 20[ pg ([1]; patient 2, D15-M1): 14.27 % RBCs | % RBCs with HbF ≥20 pg ([1]; patient 2, D15-M1): 27.43 % RBCs | % RBCs with HbF [0; 2[ pg ([1]; patient 2, M3-M4): 5.29 % RBCs | % RBCs with HbF [2; 4[ pg ([1]; patient 2, M3-M4): 8.62 % RBCs | % RBCs with HbF [4; 6[ pg ([1]; patient 2, M3-M4): 10.61 % RBCs | % RBCs with HbF [6; 8[ pg ([1]; patient 2, M3-M4): 10.39 % RBCs | % RBCs with HbF [8; 10[ pg ([1]; patient 2, M3-M4): 8.75 % RBCs | % RBCs with HbF [10; 15[ pg ([1]; patient 2, M3-M4): 8.50 % RBCs | % RBCs with HbF [15; 20[ pg ([1]; patient 2, M3-M4): 14.54 % RBCs | % RBCs with HbF ≥20 pg ([1]; patient 2, M3-M4): 33.30 % RBCs | change in red blood cells containing HbF content greater than 20 pg ([1]; patient 2, at M6): clear increase | % RBCs with HbF [0; 2[ pg ([1]; patient 2, ≥M6): 4.98 % RBCs | % RBCs with HbF [2; 4[ pg ([1]; patient 2, ≥M6): 7.04 % RBCs | % RBCs with HbF [4; 6[ pg ([1]; patient 2, ≥M6): 5.53 % RBCs | % RBCs with HbF [6; 8[ pg ([1]; patient 2, ≥M6): 4.85 % RBCs | % RBCs with HbF [8; 10[ pg ([1]; patient 2, ≥M6): 4.56 % RBCs | % RBCs with HbF [10; 15[ pg ([1]; patient 2, ≥M6): 7.48 % RBCs | % RBCs with HbF [15; 20[ pg ([1]; patient 2, ≥M6): 9.75 % RBCs | % RBCs with HbF ≥20 pg ([1]; patient 2, ≥M6): 55.81 % RBCs | % RBCs with HbF [0; 2[ pg ([1]; patient 11, D15-M1): 55.38 % RBCs | % RBCs with HbF [2; 4[ pg ([1]; patient 11, D15-M1): 23.31 % RBCs | % RBCs with HbF [4; 6[ pg ([1]; patient 11, D15-M1): 6.25 % RBCs | % RBCs with HbF [6; 8[ pg ([1]; patient 11, D15-M1): 3.07 % RBCs | % RBCs with HbF [8; 10[ pg ([1]; patient 11, D15-M1): 2.55 % RBCs | % RBCs with HbF [10; 15[ pg ([1]; patient 11, D15-M1): 2.24 % RBCs | % RBCs with HbF [15; 20[ pg ([1]; patient 11, D15-M1): 4.42 % RBCs | % RBCs with HbF ≥20 pg ([1]; patient 11, D15-M1): 2.78 % RBCs | % RBCs with HbF [0; 2[ pg ([1]; patient 11, M3-M4): 48.83 % RBCs | % RBCs with HbF [2; 4[ pg ([1]; patient 11, M3-M4): 31.73 % RBCs | % RBCs with HbF [4; 6[ pg ([1]; patient 11, M3-M4): 9.30 % RBCs | % RBCs with HbF [6; 8[ pg ([1]; patient 11, M3-M4): 4.32 % RBCs | % RBCs with HbF [8; 10[ pg ([1]; patient 11, M3-M4): 2.04 % RBCs | % RBCs with HbF [10; 15[ pg ([1]; patient 11, M3-M4): 0.72 % RBCs | % RBCs with HbF [15; 20[ pg ([1]; patient 11, M3-M4): 2.46 % RBCs | % RBCs with HbF ≥20 pg ([1]; patient 11, M3-M4): 0.59 % RBCs | RBCs >6 pg HbF ([1]; patient 11, at 6 months of treatment): 57% | decrease of red blood cells with HbF content of less than 2 pg ([1]; patient 11, at M6): approximately 73% | % RBCs with HbF [0; 2[ pg ([1]; patient 11, ≥M6): 12.93 % RBCs | % RBCs with HbF [2; 4[ pg ([1]; patient 11, ≥M6): 17.62 % RBCs | % RBCs with HbF [4; 6[ pg ([1]; patient 11, ≥M6): 11.85 % RBCs | % RBCs with HbF [6; 8[ pg ([1]; patient 11, ≥M6): 8.05 % RBCs | % RBCs with HbF [8; 10[ pg ([1]; patient 11, ≥M6): 6.08 % RBCs | % RBCs with HbF [10; 15[ pg ([1]; patient 11, ≥M6): 6.13 % RBCs | % RBCs with HbF [15; 20[ pg ([1]; patient 11, ≥M6): 9.77 % RBCs | % RBCs with HbF ≥20 pg ([1]; patient 11, ≥M6): 27.57 % RBCs | % RBCs with HbF [0; 2[ pg ([1]; patient 24, D15-M1): 53.17 % RBCs | % RBCs with HbF [2; 4[ pg ([1]; patient 24, D15-M1): 11.57 % RBCs | % RBCs with HbF [4; 6[ pg ([1]; patient 24, D15-M1): 6.69 % RBCs | % RBCs with HbF [6; 8[ pg ([1]; patient 24, D15-M1): 5.58 % RBCs | % RBCs with HbF [8; 10[ pg ([1]; patient 24, D15-M1): 4.50 % RBCs | % RBCs with HbF [10; 15[ pg ([1]; patient 24, D15-M1): 3.89 % RBCs | % RBCs with HbF [15; 20[ pg ([1]; patient 24, D15-M1): 7.56 % RBCs | % RBCs with HbF ≥20 pg ([1]; patient 24, D15-M1): 7.04 % RBCs | % RBCs with HbF [0; 2[ pg ([1]; patient 24, M3-M4): 44.56 % RBCs | % RBCs with HbF [2; 4[ pg ([1]; patient 24, M3-M4): 24.93 % RBCs | % RBCs with HbF [4; 6[ pg ([1]; patient 24, M3-M4): 12.53 % RBCs | % RBCs with HbF [6; 8[ pg ([1]; patient 24, M3-M4): 5.81 % RBCs | % RBCs with HbF [8; 10[ pg ([1]; patient 24, M3-M4): 3.09 % RBCs | % RBCs with HbF [10; 15[ pg ([1]; patient 24, M3-M4): 1.87 % RBCs | % RBCs with HbF [15; 20[ pg ([1]; patient 24, M3-M4): 3.81 % RBCs | % RBCs with HbF ≥20 pg ([1]; patient 24, M3-M4): 3.41 % RBCs | RBCs >6 pg HbF ([1]; patient 24, at 6 months of treatment): 24% | decrease of red blood cells with HbF content of less than 2 pg ([1]; patient 24, at M6): approximately 40% | % RBCs with HbF [0; 2[ pg ([1]; patient 24, ≥M6): 36.98 % RBCs | % RBCs with HbF [2; 4[ pg ([1]; patient 24, ≥M6): 25.28 % RBCs | % RBCs with HbF [4; 6[ pg ([1]; patient 24, ≥M6): 13.64 % RBCs | % RBCs with HbF [6; 8[ pg ([1]; patient 24, ≥M6): 6.92 % RBCs | % RBCs with HbF [8; 10[ pg ([1]; patient 24, ≥M6): 3.93 % RBCs | % RBCs with HbF [10; 15[ pg ([1]; patient 24, ≥M6): 2.70 % RBCs | % RBCs with HbF [15; 20[ pg ([1]; patient 24, ≥M6): 5.36 % RBCs | % RBCs with HbF ≥20 pg ([1]; patient 24, ≥M6): 5.20 % RBCs | patients in whom HbF distribution becomes homogeneous ([1]; starting from M2): 1 patient | increase of mean HbF percentage (% HbF) ([2]; after 6 months of treatment, SS patients): approximately 3 fold | % HbF ([2]; patient 2, M6): 25% | % HbF ([2]; patient 11, M 6): 18% | % HbF ([2]; patient 24, M 6): 18% | % HbF ([2]; total red blood cells, SS patients, D15-M1 of hydroxyurea, median): 4.9% | % HbF ([2]; total red blood cells, SS patients, M3-M4 of hydroxyurea, median): 7% | % HbF ([2]; total red blood cells, SS patients, M6 of hydroxyurea, median): 10.05% | Hemoglobin [3, 6]: 9.35 g/dL | MCHC [3, 6]: 34.40 g/dL | MCHCo [3, 6]: 33.80 pg | MCV [3, 6]: 100.50 femtoliter | change in mean corpuscular hemoglobin concentration (MCHC) ([3]; after 6 months of treatment): no significant variation | change in mean corpuscular volume (MCV) ([3]; after 6 months of treatment): significant increase | change in mean hemoglobin content per red blood cell (MCHCo) ([3]; after 6 months of treatment): significant increase | change in percentage of dense red blood cells ([3]; after 6 months of treatment, decrease not significant): tendency to decrease | ASAT, relative difference in % D 0 vs M 6 ([3]; patient 11): −52% and −52.7% | HbF, relative difference in % D 0 vs M 6 ([3]; patient 11): +14.5% | LDH, relative difference in % D 0 vs M 6 ([3]; patient 11): −57% and −57.7% | RETIC, relative difference in % D 0 vs M 6 ([3]; patient 11): −77% and −77.1% | ASAT (aspartate transaminase) ([3]; patient 11, M 6): 26 IU/l | HbF ([3]; patient 11, M 6): 7.1 g/dL | LDH (lactate dehydrogenase) ([3]; patient 11, M 6): 383 IU/l | MCHCo ([3]; patient 11, M 6): 38.9 pg | ASAT, relative difference in % D 0 vs M 6 ([3]; patient 24): −9.4% | HbF, relative difference in % D 0 vs M 6 ([3]; patient 24): +14.5% | LDH, relative difference in % D 0 vs M 6 ([3]; patient 24): −40.5% | RETIC, relative difference in % D 0 vs M 6 ([3]; patient 24): −57% and −57.2% | ASAT (aspartate transaminase) ([3]; patient 24, M 6): 29 IU/l | HbF ([3]; patient 24, M 6): 8.7 g/dL | LDH (lactate dehydrogenase) ([3]; patient 24, M 6): 303 IU/l | MCHCo ([3]; patient 24, M 6): 42 pg
